Source: PubChem BioAssay (NCI)
Several values for one entry are separate records, joined by “and”; a condition that tells them apart may be missing. Identical values can stand only once.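 Compound exposure: 48 hours, 5 concentrations, 96-well plates. GI50: concentration for 50% inhibition of growth. TGI denotes the concentration required for complete inhibition of growth.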

How the values were obtained:
Test in all cases: growth of human tumour cells (NCI), 48 h
[1] = test system: SF-268 CNS
[2] = test system: OVCAR-3 ovarian
[3] = test system: HOP-62 NSCLC
[4] = test system: HS 578T breast
[5] = test system: PC-3 prostate
[6] = test system: UO-31 renal
[7] = test system: OVCAR-8 ovarian
[8] = test system: MCF7 breast
[9] = test system: HCT-15 colon
[10] = test system: HL-60(TB) leukemia

Row | SMILES | GI50 [1] | TGI [1] | GI50 [2] | TGI [2] | GI50 [3] | TGI [3] | GI50 [4] | TGI [4] | GI50 [5] | TGI [5] | GI50 [6] | TGI [6] | GI50 [7] | TGI [7] | GI50 [8] | TGI [8] | GI50 [9] | TGI [9] | GI50 [10] | TGI [10]
1 | CN1C(=O)C(c2c[nH]c3ccccc23)=C(c2c[nH]c3ccccc23)C1=O | 7270 nM | > 25 µM | 7030 nM | > 25 µM | 6680 nM | > 25 µM | 5.18 µM | 21.3 µM | 4460 nM | > 25 µM | 2640 nM | > 20.6 µM | 7670 nM | > 25 µM | 5240 nM | > 24.1 µM | 5770 nM | > 25 µM | 6370 nM | 18.1 µM
2 | C=CCC1(O)c2ccccc2C(=O)c2c(OCC(=O)OCC)ccc(OCC(=O)OCC)c21 (stereo not drawn) | > 100000 nM | > 100 µM | > 100000 nM | > 100 µM | > 100000 nM | > 100 µM | > 100 µM | > 100 µM | > 100000 nM | > 100 µM | > 100000 nM | > 100 µM | > 100000 nM | > 100 µM | > 100000 nM | > 100 µM | > 100000 nM | > 100 µM | 75900 nM | > 100 µM
3 | N#CC1=C(N)Oc2c(sc3c(Br)cccc23)C1c1ccc([N+](=O)[O-])cc1 (stereo not drawn) | 547 nM | 10.7 µM | 40.3 nM | 0.849 µM | 123 nM | 14 µM | 0.0774 µM | 16.4 µM | 110 nM | 13.6 µM | 126 nM | 14.5 µM | 227 nM | 12.2 µM | 151 nM | 11.6 µM | 94.8 nM | 10.5 µM | 81.6 nM | 1.15 µM
4 | Cn1cc(-c2ccc3nc(-c4ccc(CC(=O)Nc5cc(C(C)(C)C)no5)cc4)cnc3c2)cn1 | 39.9 nM | > 3 µM | 59.2 nM | > 3 µM | 46.5 nM | > 3 µM | 0.024 µM | > 3 µM | 112 nM | > 3 µM | 52.1 nM | 0.269 µM | 54.8 nM | > 3 µM |  | > 3 µM | 19.7 nM | > 3 µM | 735 nM | > 3 µM
5 | Cc1c(Cl)cccc1C(=O)Nc1nc2c(s1)CN(C(=O)Nc1cccc(C(F)(F)F)c1)CC2 | 467 nM | > 50 µM | 140 nM | 0.539 µM | 278 nM | > 50 µM | 0.163 µM | > 50 µM | 143 nM | > 50 µM | 508 nM | > 50 µM | 277 nM | > 50 µM | 145 nM | > 50 µM | 129 nM | > 50 µM | 149 nM | 
6 | C[C@@H]1CN2[C@H]3[C@@H]1CC[C@]31CCC(=O)O[C@]1(C)[C@H]1CC[C@H]3CCC=C3[C@@H]12 | > 30000 nM | > 30 µM | > 30000 nM | > 30 µM | > 30000 nM | > 30 µM | > 30 µM | > 30 µM | > 30000 nM | > 30 µM | > 30000 nM | > 30 µM | > 30000 nM | > 30 µM | > 30000 nM | > 30 µM | > 30000 nM | > 30 µM | > 30000 nM | > 30 µM
7 | CC1=C(CCCOC(=O)[C@H](N)CC(C)C)C2=C(C)C3(CC3)[C@@](C)(O)C(=O)C2=C1 | 736 nM | > 47.2 µM | 2310 nM | 7.6 µM | 1610 nM | 5.42 µM | 5.3 µM | 43.8 µM | 2430 nM | 44.1 µM | 1420 nM | 4.32 µM | 2130 nM | > 33.3 µM | 2730 nM | > 87.1 µM | 2100 nM | > 100 µM | 2010 nM | 13.2 µM
8 | CS(=O)(=O)OCCN(CCOS(C)(=O)=O)c1ccc(C=Nc2ccc(-c3csc(COc4ccccc4)n3)cc2)cc1 |  | 14.6 µM |  | 15.3 µM |  | 10.1 µM |  | > 53.1 µM |  | 28.2 µM |  | 2.93 µM |  | 19.6 µM |  | 81.8 µM |  | 22.4 µM |  | 16.2 µM
9 | O=S(=O)(NCCCNc1cc(-c2cn(-c3ccccc3)nc2-c2cccc(O)c2)ccn1)c1ccc(C(F)(F)F)cc1 | 1850 nM | 4.95 µM | 1920 nM | 4.03 µM | 1950 nM | 3.78 µM | 1.46 µM | 5.77 µM | 1930 nM | 4.57 µM | 2040 nM | 5.74 µM | 2470 nM | 7.66 µM | 2110 nM | 6.58 µM | 1470 nM | 3.36 µM | 2520 nM | 6.2 µM
10 | Cc1ccc(NC(=O)c2ccc(CN3CCN(C)CC3)cc2)cc1Nc1nc(-c2cccnc2)cs1 | 12600 nM and > 10000 nM | 26.7 µM and > 10 µM | 11700 nM and 3500 nM | 24.3 µM and > 10 µM | 16300 nM and > 10000 nM | 29.9 µM and > 10 µM | 8.45 µM and 3.52 µM | 41.6 µM and > 10 µM | 5940 nM and 4990 nM | 19.7 µM and > 10 µM | 12400 nM and 6420 nM | 26.9 µM and > 10 µM | 6910 nM and 3650 nM | 19.8 µM and > 10 µM | 5970 nM and 2840 nM | 21.7 µM and > 10 µM | 4520 nM and 3180 nM | 19.5 µM and > 10 µM | 2250 nM and 400 nM | 6.96 µM and 5.47 µM
11 | Sc1cccc2cccnc12 | 1350 nM | 13.5 µM | 467 nM | 8.01 µM | 1110 nM | 12.3 µM | 2.81 µM | 16.4 µM | 577 nM | 13.1 µM | 616 nM | 11.9 µM | 537 nM | 15.3 µM | 484 nM | 11.6 µM | 427 nM | 14.4 µM | 1020 nM | 7.21 µM
12 | O=C(CCCc1ccc(N(CCCl)CCCl)cc1)NCc1ccccc1 | 5690 nM | 57.8 µM | 13700 nM | 38.1 µM | 8000 nM | 40.5 µM | 15.6 µM | > 100 µM | 12100 nM | 73.9 µM | 5430 nM | 39.1 µM | 8110 nM | > 100 µM | 3080 nM | > 100 µM | 13300 nM | > 100 µM | 4370 nM | 23.4 µM
